Results: patent US5034391A, “Piperazinylalkyl-3(2H)-pyridazinones and the use thereof as agents lowering blood pressure” (CL Pharma Aktiengesellschaft, priority 1988, dated 1991)
Several values for one entry are separate records, joined by “and”; a condition that tells them apart may be missing. Identical values can stand only once.

Target: T1, alpha1 adrenoceptors (Rattus norvegicus, UniProt P15823)
T1 construct: from tissue; host or cells: rat cardiac membranes
T1 sequence (P15823 1-515): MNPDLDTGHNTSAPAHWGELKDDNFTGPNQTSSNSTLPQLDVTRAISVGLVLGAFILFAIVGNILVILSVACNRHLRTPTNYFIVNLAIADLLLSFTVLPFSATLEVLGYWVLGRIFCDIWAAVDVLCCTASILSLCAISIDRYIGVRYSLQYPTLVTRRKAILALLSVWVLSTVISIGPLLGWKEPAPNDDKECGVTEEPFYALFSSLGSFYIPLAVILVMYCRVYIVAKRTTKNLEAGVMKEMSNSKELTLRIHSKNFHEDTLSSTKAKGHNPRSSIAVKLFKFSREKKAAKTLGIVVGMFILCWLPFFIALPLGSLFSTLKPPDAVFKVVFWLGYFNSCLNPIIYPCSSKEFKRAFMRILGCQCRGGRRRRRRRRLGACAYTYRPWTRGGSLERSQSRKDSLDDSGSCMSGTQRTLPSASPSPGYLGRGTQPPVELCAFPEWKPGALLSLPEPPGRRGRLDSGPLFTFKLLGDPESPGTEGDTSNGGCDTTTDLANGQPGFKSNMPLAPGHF
Assay: Affinity for alpha1 adrenoceptors: displacement of tritiated prazosin on rat cardiac membranes
Assay type: binding
Conditions: Ki from IC50 by Cheng and Prusoff, read-out: Inhibition constants at alpha-1-adrenoceptor (Ki)
Description: The affinity of compounds of the general formula I for alpha1 adrenoceptors was established using the method described by R. S. Williams, D. F. Dukes and […] in J. Cardiovasc. Pharmacol. 3, 522-531 (1981). In this method the competitive displacement of tritiated prazosin (2-(4-(2-furoyl)-1-piperazinyl)-4-amino-6,7-dimethoxy-quinazoline) on rat-cardiac membranes by the test substances is measured, and the IC50 (50% inhibition concentration) is determined as that concentration which brings about a 50% inhibition of the specific binding of tritiated prazosin to the alpha1 adrenoceptors in rat cardiac membranes.
The concentration-independent inhibitor constants K1 -alpha1 were determined from the IC50 values as stated by Y. Cheng and H. W.Prusoff in Biochem. Pharmacol. 22, 3099-3108 (1973).

Ki | SMILES
3.55 nM | COc1ccccc1N1CCN(CCCN(C)c2cnn(C)c(=O)c2Cl)CC1 [2-Methyl-4-chloro-5-(methyl-(3-(4-(2-methoxyphenyl)piperazinyl-1)propyl)amino)-3(2H)-pyridazinone]
32.8 nM | Cn1ncc(NCCCN2CCN(c3ccccc3F)CC2)c(Cl)c1=O [2-Methyl-4-chloro-5-((3-(4-(2-fluorophenyl)piperazinyl-1)propyl)amino)-3(2H)-pyridazinone]
84 nM | O=c1[nH]nccc1NCCN1CCN(c2ccccc2O)CC1 [4((2-(4-(2-Hydroxyphenyl)piperazinyl-1)ethyl)amino)-3(2H)-pyridazinone]
5.34 nM | Cc1ccc(N2CCN(CCCNc3c(Cl)cnn(C)c3=O)CC2)c(O)c1 [2-Methyl-5-chloro-4-((3-(4-(2-hydroxy-4-methylphenyl)piperazinyl-1)propyl)amino)-3(2H)-pyridazinone]
18 nM | CCn1nc(Cl)cc(NCCCN2CCN(c3ccccc3OC)CC2)c1=O [6-Chloro-2-ethyl-4-((3-(4-(2-methoxyphenyl)-1-piperazinyl)propyl)amino)-3(2H)-pyridazinone]
103 nM | CCOc1ccccc1N1CCN(CCNc2cnn(C)c(=O)c2)CC1 [2-Methyl-5-((2-(4-(2-ethoxyphenyl)piperazinyl-1)ethyl)amino)-3(2H)-pyridazinone]
30.2 nM | Cn1nccc(NCCCN2CCN(c3ccccc3F)CC2)c1=O [2-Methyl-4-((3-(4-(2-fluorophenyl)piperazinyl-1)propyl)amino)-3(2H)-pyridazinone]
60.8 nM | COc1ccccc1N1CCN(CCNc2ccnn(C(C)(C)C)c2=O)CC1 [2-t-Butyl-4-((2-(4-(2-methoxyphenyl)piperazinyl-1)ethyl)amino)-3(2H)-pyridazinone]
61.6 nM | COc1ccccc1N1CCN(CCNc2cnn(-c3ccccc3)c(=O)c2)CC1 [2-Phenyl-5-((2-(4-(2-methoxyphenyl)piperazinyl-1)ethyl)amino)-3(2H)-pyridazinone]
20.9 nM | Cc1ccc(N2CCN(CCCNc3ccnn(C)c3=O)CC2)c(O)c1 [2-Methyl-4-((3-(4-(2-hydroxy-4-methylphenyl)piperazinyl-1)propyl)amino)-3(2H)-pyridazinone]
65.8 nM | Cn1ncc(NCCN2CCN(c3ccccc3O)CC2)cc1=O [2-Methyl-5-((2-(4-(2-hydroxyphenyl)piperazinyl-1)ethyl)amino)-3(2H)-pyridazinone]
12.8 nM | COc1ccccc1N1CCN(CCNc2cc(Cl)n[nH]c2=O)CC1 [6-Chloro-4-((2-(4-(2-methoxyphenyl)piperazinyl-1)ethyl)amino)-3(2H)-pyridazinone]
9.6 nM | COc1ccccc1N1CCN(CCCNc2cc(Cl)nn(CCO)c2=O)CC1 [6-Chloro-2-hydroxyethyl-4-((3-(4-(2-methoxyphenyl)piperazinyl-1)propyl)amino)-3(2H)-pyridazinone]
24.7 nM and 40.5 nM | COc1ccccc1N1CCN(CCCNc2ccnn(C)c2=O)CC1 [2-Methyl-4-((3-(4-(2-methoxyphenyl)piperazinyl-1)propyl)amino-3(2H)-pyridazinone]
13 nM | CCOc1ccccc1N1CCN(CCCNc2ccn[nH]c2=O)CC1 [4-((3-(4-(2-Ethoxyphenyl)piperazinyl-1)propyl)amino)-3(2H)pyridazinone]
13.6 nM | CCOc1cc(C)ccc1N1CCN(CCCNc2ccnn(C)c2=O)CC1 [2-Methyl-4-((3-(4-(2-ethoxy-4-methylphenyl)piperazinyl-1)propyl)amino)-3(2H)-pyridazinone]
437 nM | COc1ccccc1N1CCN(CCNc2ccnn(CCN(C)C)c2=O)CC1 [2-(2-Dimethylaminoethyl)-4-((2-(4-(2-methoxyphenyl)piperazinyl-1)ethyl)amino)-3(2H)-pyridazinone]

Ki | SMILES
2 nM | Cn1ncc(NCCN2CCN(c3ccccc3OCc3ccccc3)CC2)c(Cl)c1=O [2-Methyl-4-chloro-5-((2-(4-(2-benzyloxyphenyl)piperazinyl-1)ethyl)amino)-3(2H)-pyridazinone]
6.5 nM | CCOc1ccccc1N1CCN(CCCNc2cc(Cl)nn(C)c2=O)CC1 [2-Methyl-6-chloro-(3-(4-(4-(2-ethoxyphenyl)piperazinyl-1)propyl)amino)-3(2H)-pyridazinone]
26.1 nM | COc1ccccc1N1CCN(CCCNc2ccn[nH]c2=O)CC1 [4-((3-(4-(2-Methoxyphenyl)piperazinyl-1)propyl)amino) -3(2H)-pyridazinone]
20.8 nM | Cc1ccc(N2CCN(CCNc3cnn(C)c(=O)c3Cl)CC2)c(O)c1 [2-Methyl-4-chloro-5-((4-(2-hydroxy-4-methylphenyl)piperazinyl-1)ethyl)amino)-3(2H)-pyridazinone]
37.1 nM | CCN(CCN1CCN(c2ccccc2OC)CC1)c1cnn(C)c(=O)c1Cl [2-Methyl-4-chloro-5-(ethyl-(2-(4-(2-methoxyphenyl)piperazinyl-1)ethyl)amino)-3(2H)-pyridazinone]
10 nM | CC(C)Oc1ccccc1N1CCN(CCNc2cc(Cl)n[nH]c2=O)CC1 [6-Chloro-4-((2-(4-(2-iso-propoxyphenyl)piperazinyl-1)ethyl)amino)-3(2H)-pyridazinone]
6.05 nM | COc1ccccc1N1CCN(CCCCNc2cnn(C)c(=O)c2Cl)CC1 [2-Methyl-4-chloro-5-((4-(4-(2-methoxyphenyl)-1-piperazinyl)butyl)amino)-3(2H)-pyridazinone]
23.3 nM | CCOc1cc(C)ccc1N1CCN(CCCNc2cnn(C)c(=O)c2)CC1 [1-Methyl-5-((3-(4-(2-ethoxy-4-methylphenyl)piperazinyl-1)propyl)amino)-3(2H)-pyridazinone]
229 nM | COc1ccccc1N1CCN(CCNc2cnn(CCN(C)C)c(=O)c2)CC1 [2-(2-Dimethylaminoethyl)-5-((2-(4-(2-methoxyphenyl)piperazinyl-1)ethyl)amino)-3(2H)-pyridazinone]
2.95 nM | COc1ccccc1N1CCN(CCNc2c(Cl)cn[nH]c2=O)CC1 [5-Chloro-4-((2-(4-methoxyphenyl)piperazinyl-1)ethyl)amino)-3(2H)-pyridazinone]
3.34 nM | COc1ccccc1N1CCN(CCCCNc2cc(Cl)n[nH]c2=O)CC1 [6-Chloro-4-((4-(4-(2-methoxyphenyl)-1-piperazinyl)butyl)amino)-3(2H)-pyridazinone]
11 nM | COc1ccccc1N1CCN(CCCNc2cc(Cl)n[nH]c2=O)CC1 [6-Chloro-4-((3-(4-(2-methoxyphenyl)piperazinyl-1)propyl)amino)-3(2H)-pyridazinone]
13.6 nM | CCOc1ccccc1N1CCN(CCNc2ccnn(C)c2=O)CC1 [2-Methyl-4-((2-(4-(2-ethoxyphenyl)piperazinyl-1)ethyl)amino)-3(2H)-pyridazinone]
4.64 nM | COc1ccccc1N1CCN(CCCCNc2ccn[nH]c2=O)CC1 [4-((4-(4-(2-Methoxyphenyl)piperazinyl-1)butyl)amino) -3(2H)-pyridazinone]
6.27 nM | Cc1ccccc1N1CCN(CCNc2cnn(C)c(=O)c2Cl)CC1 [2-Methyl-4-chloro-5-((2-(4-(2-methylphenyl)piperazinyl-1)ethyl)amino)-3(2H)-pyridazinone]
15.8 nM | COc1ccccc1N1CCN(CCNc2c(Cl)cnn(CCN(C)C)c2=O)CC1 [2-(2-Dimethylaminoethyl)-5-chloro-4-((2-(4-(2-methoxyphenyl)piperazinyl-1)ethyl)amino)-3(2H)-pyridazinone]
